Assay results from ChEMBL document CHEMBL1201862, “PubChem BioAssay data set” (2004).
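Dose response: 5 concentrations. Exposure: 48 h. Format: 96-well plates. Endpoint: linear interpolation; highest concentration if not reached. GI50 marks 50% less growth.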 The source made the active and inactive calls. Cut-off read from the data, not from the text of the source: active = GI50 up to about 1.1 µM and inactive = higher.

Legend:
Test in all cases: NCI anticancer screen, dose series, 48 h
DMS-273 = system: DMS-273
HOP-62 = system: HOP-62
SR = system: SR
HOP-92 = system: HOP-92
MOLT-4 = system: MOLT-4
SF-539 = system: SF-539
Malme-3M = system: Malme-3M
ACHN = system: ACHN
IGROV-1 = system: IGROV-1
SNB-75 = system: SNB-75
NCI-H460 = system: NCI-H460
M14 = system: M14
UACC-62 = system: UACC-62
K562 = system: K562
RXF 393 = system: RXF 393
786-0 = system: 786-0
UO-31 = system: UO-31
NCI-H522 = system: NCI-H522
MCF7 = system: MCF7
HL-60 = system: HL-60

Measured: GI50

O=NN(CCCl)C(=O)N[C@H]1CC[C@@H](C(=O)O)CC1
inactive: DMS-273 > 100 µM | HOP-62 83 µM | SR 40.2 µM | HOP-92 > 76 µM | MOLT-4 32.2 µM | SF-539 29.6 µM | Malme-3M > 96.2 µM | ACHN 65.6 µM | IGROV-1 > 100 µM | SNB-75 > 72.3 µM | NCI-H460 49.3 µM | M14 > 100 µM | UACC-62 21.3 µM | K562 91 µM | RXF 393 > 100 µM | 786-0 40.7 µM | UO-31 > 100 µM | NCI-H522 23 µM | MCF7 > 100 µM | HL-60 33.7 µM

CC1CCC(O)C(C(O)CC2CC(=O)N(C)C(=O)C2)C1 (configuration not stated)
inactive: DMS-273 > 100 µM | HOP-62 > 100 µM | SR > 100 µM | HOP-92 > 100 µM | MOLT-4 > 100 µM | SF-539 > 100 µM | Malme-3M > 100 µM | ACHN > 100 µM | IGROV-1 > 100 µM | SNB-75 > 100 µM | NCI-H460 > 100 µM | M14 > 100 µM | UACC-62 > 100 µM | K562 > 100 µM | RXF 393 > 100 µM | 786-0 > 100 µM | UO-31 > 100 µM | NCI-H522 > 100 µM | HL-60 > 100 µM

CCCCCCCCCC(=O)Oc1cccc2onc(C)c12
inactive: DMS-273 > 100 µM | HOP-62 > 100 µM | SR 49 µM | HOP-92 > 100 µM | MOLT-4 66.8 µM | SF-539 > 100 µM | Malme-3M > 100 µM | ACHN > 100 µM | IGROV-1 > 100 µM | SNB-75 > 100 µM | NCI-H460 > 100 µM | M14 > 100 µM | UACC-62 > 100 µM | K562 73.1 µM | RXF 393 > 100 µM | 786-0 > 100 µM | UO-31 40.8 µM | NCI-H522 > 100 µM | HL-60 19.4 µM

Oc1ncnc2c1nnn2CCCCCCCCCCCCn1nnc2c(O)ncnc21
inactive: DMS-273 27.5 µM | HOP-62 21.7 µM | SR > 35.2 µM | HOP-92 30 µM | MOLT-4 > 100 µM | SF-539 31.7 µM | Malme-3M > 100 µM | ACHN 32.3 µM | IGROV-1 22.2 µM | SNB-75 > 40.9 µM | NCI-H460 51.8 µM | M14 > 100 µM | UACC-62 36.9 µM | K562 > 100 µM | RXF 393 24.3 µM | 786-0 22.9 µM | UO-31 25.7 µM | NCI-H522 20.4 µM | MCF7 98.6 µM | HL-60 > 45.4 µM

COc1ccc([C@H]2CC(=O)N3CCCC3N2)cc1 (some centres not stated)
inactive: DMS-273 > 100 µM | HOP-62 > 100 µM | SR > 100 µM | HOP-92 > 100 µM | MOLT-4 > 100 µM | SF-539 > 100 µM | Malme-3M > 100 µM | ACHN > 100 µM | IGROV-1 > 100 µM | SNB-75 > 100 µM | NCI-H460 > 100 µM | M14 > 100 µM | UACC-62 > 100 µM | K562 > 100 µM | RXF 393 > 100 µM | 786-0 > 100 µM | UO-31 > 100 µM | NCI-H522 > 100 µM | HL-60 > 100 µM

Cc1nn2c(=O)n(-c3cccc(-n4nnc5c(-c6ccccc6)c(C)nn5c4=O)c3C)nnc2c1-c1ccccc1
inactive: DMS-273 66.8 µM | HOP-62 97.7 µM | SR 12.9 µM | HOP-92 55.5 µM | MOLT-4 11.1 µM | SF-539 24.4 µM | Malme-3M 14.2 µM | ACHN 18.7 µM | IGROV-1 22.4 µM | SNB-75 37.4 µM | NCI-H460 18.5 µM | M14 15.2 µM | UACC-62 46.1 µM | K562 20.1 µM | RXF 393 34.6 µM | 786-0 94.4 µM | UO-31 8.91 µM | NCI-H522 15.5 µM | HL-60 18.2 µM

CC(C)(C)NN=C1C(C)(C)C(=NNC(C)(C)C)C1(C)C
inactive: DMS-273 > 100 µM | HOP-62 > 100 µM | SR > 100 µM | HOP-92 > 100 µM | MOLT-4 > 100 µM | SF-539 > 100 µM | Malme-3M > 100 µM | ACHN > 100 µM | IGROV-1 > 100 µM | SNB-75 > 100 µM | NCI-H460 > 100 µM | M14 > 100 µM | UACC-62 > 100 µM | K562 > 100 µM | RXF 393 > 100 µM | 786-0 > 100 µM | UO-31 > 100 µM | NCI-H522 > 100 µM | HL-60 > 100 µM

COC(=O)N1[C@H]2Cc3c(OC)c(C)c(OC)c(OC)c3[C@@H]1/C(=C\c1cc(OC)c(OC)c(C)c1OC)N(Cc1ccccc1)C2=O
inactive: DMS-273 13.2 µM | HOP-62 74.1 µM | SR 7.85 µM | HOP-92 7.96 µM | MOLT-4 16.1 µM | SF-539 > 100 µM | Malme-3M 28.6 µM | ACHN 32.4 µM | IGROV-1 95.3 µM | SNB-75 67.5 µM | NCI-H460 13.2 µM | M14 29.7 µM | UACC-62 56.9 µM | K562 26.2 µM | RXF 393 > 100 µM | 786-0 54 µM | UO-31 18.7 µM | NCI-H522 5.7 µM | HL-60 5.52 µM

CCOC(=O)C1Oc2ccc([N+](=O)[O-])c3c2C1(O)CCC3 (configuration not stated)
inactive: DMS-273 > 100 µM | HOP-62 > 100 µM | SR > 100 µM | HOP-92 > 100 µM | MOLT-4 > 100 µM | SF-539 > 100 µM | Malme-3M > 100 µM | ACHN > 100 µM | IGROV-1 > 100 µM | SNB-75 > 100 µM | NCI-H460 33.4 µM | M14 > 100 µM | UACC-62 > 100 µM | K562 > 100 µM | RXF 393 > 100 µM | 786-0 > 100 µM | UO-31 47.2 µM | NCI-H522 > 100 µM | HL-60 > 100 µM

CC(C)(C)OC(=O)NC(CO)c1cccc(OCc2ccccc2)c1 (configuration not stated)
inactive: DMS-273 53.2 µM | HOP-62 > 82.4 µM | SR 86.3 µM | HOP-92 22.1 µM | MOLT-4 30.3 µM | SF-539 > 100 µM | Malme-3M 63 µM | ACHN 71.4 µM | IGROV-1 > 100 µM | SNB-75 > 100 µM | NCI-H460 35.3 µM | M14 41.9 µM | UACC-62 33 µM | K562 36 µM | RXF 393 > 100 µM | 786-0 > 100 µM | UO-31 > 100 µM | NCI-H522 46 µM | HL-60 13.9 µM
